This is an account of results in US4264736A, “Antibiotic 890A10” (Merck & Co., Inc., priority 1979, dated 1981).

Data set [1] concerns Staphylococcus aureus ATCC 6538 P. Kind of data set: Antibiotic spectrum profile, agar zone of inhibition. As to conditions: ATCC6538, 0.015 ml of 9.5 μg/ml aqueous solution, 25° C., read-out: Inhib. Zone Diam. It counts as cell-based.
Data set [2] in a line: Electrophoresis at neutral pH. It counts as physicochemical. To be noted: 50 volts/cm, 0.03 M potassium phosphate buffer, pH 7.1, 30 minutes. Here is the method:
Antibiotic 890A10 is an acidic substance which migrates toward the positive pole on electrophoresis at neutral pH. At a gradient of 50 volts/cm. in 0.03 M potassium phosphate buffer, pH 7.1, the antibiotic moves 8.0 cm. in 30 minutes, compared with a movement of 4.0 cm. for 890A1. The disodium salt is a white or slightly yellow powder as lyophilized from aqueous solution. Under acidic conditions in aqueous solution, the antibiotic is unstable, and the free acid form has not been isolated.

For data set [3], the system named is Streptococcus faecium MB No. 2820. The experiment in a line: Antibiotic spectrum profile, agar zone of inhibition. It counts as cell-based. As to conditions: Enterococcus faecium, MBNO.2820, 0.015 ml of 9.5 μg/ml aqueous solution, 25° C., read-out: Inhib. Zone Diam.
Data set [4] deals with bacterial β-lactamases. The experiment in a line: Inhibition of bacterial β-lactamases (statement). It counts as biochemical.
The test system of data set [5] is Brucella bronchiseptica ATCC 4617. The experiment in a line: microbe, parasite or virus in culture. It counts as cell-based. As to conditions: Bordetella bronchiseptica, ATCC4617, read-out: Inhib. Zone Diam.
For data set [6], the system named is Aerobacter aerogenes MB No. 835. The experiment in a line: Antibiotic spectrum profile, agar zone of inhibition. It counts as cell-based. As to conditions: Klebsiella aerogenes, MBNO.835, 0.015 ml of 9.5 μg/ml aqueous solution, 25° C., read-out: Inhib. Zone Diam. Here is the method:
(§1) The test to determine the antibiotic spectrum profiles of antibiotic 890A10 is carried out by application of a 0.015 ml. droplet of a 9.5 μg./ml. aqueous solution of the antibiotic on the surface of a 100×15 mm. petri plate containing 3 ml. of seeded nutrient agar plus 0.2% yeast extract which is incubated at 25° C.

In data set [7] the test system is Bacillus sp. MB No. 633. The description is as above. As to conditions: 0.015 ml of 9.5 μg/ml aqueous solution, 25° C., read-out: Inhib. Zone Diam. It counts as cell-based. The procedure:
as §1

Data set [8] deals with Serratia marcescens ATCC 890. Described as above. It counts as cell-based. As to conditions: ATCC890, 0.015 ml of 9.5 μg/ml aqueous solution, 25° C., read-out: Inhib. Zone Diam. The procedure:
as §1

Data set [9] relates to Vibrio percolans ATCC 8461. The description is as above. It counts as cell-based. As to conditions: Comamonas terrigena, ATCC8461, 0.015 ml of 9.5 μg/ml aqueous solution, 25° C., read-out: Inhib. Zone Diam.
The subject of data set [10] is Proteus mirabilis MB No. 3126. The description is as above. To be noted: MBNO.3126, 0.015 ml of 9.5 μg/ml aqueous solution, 25° C., read-out: Inhib. Zone Diam. It counts as cell-based.
Data set [11] has as its system Protcus vulgaris MB No. 1012. The data set is described as above. As to conditions: 0.015 ml of 9.5 μg/ml aqueous solution, 25° C., read-out: Inhib. Zone Diam. It counts as cell-based.
The subject of data set [12] is Streptococcus agalactiae MB No. 2875. Described as above. It counts as cell-based. To be noted: MBNO.2875, 0.015 ml of 9.5 μg/ml aqueous solution, 25° C., read-out: Inhib. Zone Diam.
Data set [13] deals with Escherichia coli MB No. 1418. The description is as above. It counts as cell-based. As to conditions: MBNO.1418, 0.015 ml of 9.5 μg/ml aqueous solution, 25° C., read-out: Inhib. Zone Diam.
For data set [14], the system named is Corynebacterium psedodiph. ATCC 9742. The data set is described as above. As to conditions: ATCC9742, 0.015 ml of 9.5 μg/ml aqueous solution, 25° C., read-out: Inhib. Zone Diam. It counts as cell-based.
The subject of data set [15] is Erwinia atroseptica ATCC 4446. Described as above. It counts as cell-based. To be noted: Pectobacterium atrosepticum, ATCC4446, 0.015 ml of 9.5 μg/ml aqueous solution, 25° C., read-out: Inhib. Zone Diam.
The test system of data set [16] is Proteus vulgaris ATCC 21100. Described as above. As to conditions: ATCC21100, 0.015 ml of 9.5 μg/ml aqueous solution, 25° C., read-out: Inhib. Zone Diam. It counts as cell-based.
For data set [17], the system named is Klebsiella pneumoniae MB No. 1264. The data set is described as above. It counts as cell-based. As to conditions: MBNO.1264, 0.015 ml of 9.5 μg/ml aqueous solution, 25° C., read-out: Inhib. Zone Diam.

In the case of `CC(=O)NCCSC1=C(C(=O)O)N2C(=O)C(C(C)OS(=O)(=O)O)C2C1` (centres unmarked) [Antibiotic 890A10], the zone of inhibition at 9.5 µg/mL in [1] came to 20 mm; in data set [3] it was 0 mm; in data set [5], 0 mm; in [6] it was 22 mm; in [7] it was 30 mm; in [8] it was 15 mm. Besides, the zone of inhibition at 9.5 µg/mL in [9] was 33 mm; in [10], 29 mm; in data set [11], 19 mm; in data set [12], 29 mm; in data set [13] it was 25 mm; in [14], 12 mm. Further, the figures for the zone of inhibition at 9.5 µg/mL in data set [15], in [16] and in data set [17] were 10 mm, 30 mm and 19 mm, respectively. Besides, the “movement toward the positive pole on electrophoresis” value in data set [2] was 8.0 cm. Moreover, the “inhibition of bacterial β-lactamases” value in [4] is “potent inhibitor of bacterial β-lactamases”.
